Measurements published in US9868737B2, “Pyridino[1,2-A]pyrimidone analogue used as MTOR/P13K inhibitor” (CISEN PHARMACEUTICAL CO., LTD., priority 2014, dated 2018).
Like-named read-outs stand apart in the source and are kept apart here.

Tested on: MCF-7 cells
Experiment: In vitro test of cell activity (MCF-7 cells, insulin stimulation, ELISA-One fluorescence)
Type: cell-based
Details: Homo sapiens, MCF7, MCF-7 cells; for inhibition at 0.25 µM: conc. 0.25 μM
Method in brief: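 MCF-7 cells, seeded at 2.5×10^4/well in 10% FBS medium, were given compound in serum-free medium for 2 h at one concentration (screen) or a series (IC50). Insulin stimulation followed at […] final for 30 min; lysates assayed by ELISA-One sandwich immunoassay with fluorescence read-out.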

Row | Compound | IC50 (read-out: IC50 p-AKT) | IC50 (read-out: IC50 p-p70S6K) | inhibition at 0.25 µM (read-out: % inhibition AKT) | inhibition at 0.25 µM (read-out: % inhibition p70s6k)
1 | COc1ncc(-c2ccc3ncc(Cl)c(=O)n3c2)cc1NS(=O)(=O)c1c(F)cccc1F [compound 148] | 50 to 100 nM | 50 to 100 nM | 88.9% | 86.3%
2 | COc1ncc(-c2ccc3ncc(Cl)c(=O)n3c2)cc1NS(=O)(=O)c1ccc(C)cc1Cl [compound 152] | ≤ 50 nM | ≤ 50 nM | 94% | 83.9%
3 | COc1ncc(-c2ccc3ncc(Cl)c(=O)n3c2)cc1NS(=O)(=O)c1cnc(C)n1C [compound 154] | 100 to 250 nM | 50 to 100 nM | 85.4% | 92.6%
4 | COc1ncc(-c2ccc3ncc(Cl)c(=O)n3c2)cc1NS(=O)(=O)c1cnc(C)[nH]1 [compound 155] | – | – | 29.8% | 42.2%
5 | COc1ncc(-c2ccc3ncc(Cl)c(=O)n3c2)cc1NS(=O)(=O)c1cnc(C)s1 [compound 156] | 50 to 100 nM | 100 to 250 nM | 77.9% | 74.1%
6 | COc1ncc(-c2ccc3ncc(Cl)c(=O)n3c2)cc1NS(=O)(=O)c1nc(C)c(C)s1 [compound 157] | ≤ 50 nM | 50 to 100 nM | 79.2% | 90.8%
7 | COc1ncc(-c2ccc3ncc(Cl)c(=O)n3c2)cc1NS(=O)(=O)c1nnc(C)s1 [compound 158] | – | – | -21.8% | 5.1%
8 | COc1ncc(-c2ccc3ncc(Cl)c(=O)n3c2)cc1NS(=O)(=O)c1ncccc1Cl [compound 159] | 100 to 250 nM | 100 to 250 nM | 68.6% | 84.8%
9 | COc1ncc(-c2ccc3ncc(Cl)c(=O)n3c2)cc1NS(=O)(=O)c1cnc(Cl)s1 [compound 160] | – | – | 61.9% | 71.6%
10 | COc1ncc(-c2ccc3ncc(Cl)c(=O)n3c2)cc1NS(=O)(=O)c1cnc(N)s1 [compound 161] | 50 to 100 nM | > 250 nM | 79.5% | 41%
11 | COc1ncc(-c2ccc3ncc(Cl)c(=O)n3c2)cc1NS(=O)(=O)c1ncc(C)s1 [compound 162] | 50 to 100 nM | 100 to 250 nM | 77.8% | 64.9%
12 | COc1ncc(-c2ccc3ncc(Cl)c(=O)n3c2)cc1NS(=O)(=O)c1c(C)n[nH]c1C [compound 163] | 100 to 250 nM | 50 to 100 nM | 78.1% | 88.8%
13 | COc1ncc(-c2ccc3ncc(Cl)c(=O)n3c2)cc1NS(=O)(=O)c1cccnc1C [compound 164] | ≤ 50 nM | 50 to 100 nM | 79.4% | 89.6%
14 | COc1ncc(-c2ccc3ncc(Cl)c(=O)n3c2)cc1NS(=O)(=O)c1[nH]c(C)nc1C [compound 165] | – | – | 49.5% | 63.7%
15 | COc1ncc(-c2ccc3ncc(Cl)c(=O)n3c2)cc1NS(=O)(=O)c1c(C)noc1C [compound 166] | 100 to 250 nM | 100 to 250 nM | 66.5% | 89.2%
16 | COc1ncc(-c2ccc3ncc(Cl)c(=O)n3c2)cc1NS(=O)(=O)c1sc(NC(C)=O)nc1C [compound 167] | 100 to 250 nM | – | – | –
17 | COc1ncc(-c2ccc3ncc(Cl)c(=O)n3c2)cc1NS(=O)(=O)c1ccc(C)nc1C [compound 169] | ≤ 50 nM | – | – | –
18 | COc1ncc(-c2ccc3ncc(Cl)c(=O)n3c2)cc1NS(=O)(=O)c1nc(N)sc1C [compound 170] | ≤ 50 nM | – | – | –
19 | CCOc1cnc2ccc(-c3cnc(OC)c(NS(=O)(=O)c4ccc(F)cc4F)c3)cn2c1=O [compound 171, N-(5-(3-ethoxy-4-oxo-4H-pyrido[1,2-a]pyrimidin-7-yl)-2-methoxypyridin-3-yl)-2,4-difluorobenzsulfamide] | 50 to 100 nM | 100 to 250 nM | 76.3% | 73.4%
20 | CCOc1cnc2ccc(-c3cnc(OC)c(NS(=O)(=O)c4ccc(F)cc4Cl)c3)cn2c1=O [compound 172] | ≤ 50 nM | 100 to 250 nM | 83.5% | 74.4%
21 | CCOc1cnc2ccc(-c3cnc(OC)c(NS(=O)(=O)c4ccccc4Cl)c3)cn2c1=O [compound 173] | – | – | 88.9% | 82.6%
22 | COCCOc1cnc2ccc(-c3cnc(OC)c(NS(=O)(=O)c4ccc(F)cc4F)c3)cn2c1=O [compound 175, 2,4-difluoro-N-(2-methoxy-5-(3-(2-methoxyethoxy)-4-oxo-4H-pyrido[1,2-a]pyrimidin-7-yl)pyridin-3-yl)benzsulfamide] | 50 to 100 nM | 100 to 250 nM | 75.2% | 65.4%
23 | COc1ncc(-c2ccc3ncc(OCC(=O)O)c(=O)n3c2)cc1NS(=O)(=O)c1ccc(F)cc1F [compound 177] | > 250 nM | – | – | –
24 | COc1ncc(-c2ccc3ncc(OCCO)c(=O)n3c2)cc1NS(=O)(=O)c1ccc(F)cc1F [compound 178] | 50 to 100 nM | – | – | –
25 | COCOc1cnc2ccc(-c3cnc(OC)c(NS(=O)(=O)c4ccc(F)cc4F)c3)cn2c1=O [compound 179] | ≤ 50 nM | ≤ 50 nM | – | –
26 | COCCOc1cnc2ccc(-c3cnc(OC)c(NS(=O)(=O)c4ccc(OC)nc4C)c3)cn2c1=O [compound 187] | ≤ 50 nM | – | – | –
27 | COCCOc1cnc2ccc(-c3cnc(OC)c(NS(=O)(=O)c4ccc(C)nc4C)c3)cn2c1=O [compound 192] | ≤ 50 nM | – | – | –

Further lines, with some results ahead:

Row | IC50 (read-out: IC50 p-AKT) | IC50 (read-out: IC50 p-p70S6K) | Compound | inhibition at 0.25 µM (read-out: % inhibition AKT) | inhibition at 0.25 µM (read-out: % inhibition p70s6k)
28 | ≤ 50 nM | – | COc1ncc(-c2ccc3ncc(Cl)c(=O)n3c2)cc1NS(=O)(=O)c1sc(Cl)nc1C [compound 168] | – | –
29 | ≤ 50 nM | ≤ 50 nM | COCCOc1cnc2ccc(-c3cnc(OC)c(NS(=O)(=O)c4sc(C)nc4C)c3)cn2c1=O [compound 176] | – | –
30 | ≤ 50 nM | – | COc1ncc(-c2ccc3ncc(OCCO)c(=O)n3c2)cc1NS(=O)(=O)c1sc(C)nc1C [compound 180] | – | –
31 | ≤ 50 nM | – | COCOc1cnc2ccc(-c3cnc(OC)c(NS(=O)(=O)c4sc(C)nc4C)c3)cn2c1=O [compound 181] | – | –
32 | > 250 nM | – | COCCOc1cnc2ccc(-c3cnc(OC)c(NS(=O)(=O)c4sccc4C)c3)cn2c1=O [compound 182] | – | –
33 | ≤ 50 nM | – | COCCOc1cnc2ccc(-c3cnc(OC)c(NS(=O)(=O)c4sc(N)nc4C)c3)cn2c1=O [compound 183] | – | –
34 | 50 to 100 nM | – | COCOc1cnc2ccc(-c3cnc(OC)c(NS(=O)(=O)c4sc(N)nc4C)c3)cn2c1=O [compound 184] | – | –
35 | ≤ 50 nM | – | COc1ncc(-c2ccc3ncc(OCC4COC4)c(=O)n3c2)cc1NS(=O)(=O)c1sc(C)nc1C [compound 185] | – | –
36 | ≤ 50 nM | – | COc1ncc(-c2ccc3ncc(OCC4OCCO4)c(=O)n3c2)cc1NS(=O)(=O)c1sc(C)nc1C [compound 186] | – | –
37 | ≤ 50 nM | – | COCOCCOc1cnc2ccc(-c3cnc(OC)c(NS(=O)(=O)c4sc(C)nc4C)c3)cn2c1=O [compound 188] | – | –
38 | ≤ 50 nM | – | CNc1nc(C)c(S(=O)(=O)Nc2cc(-c3ccc4ncc(OCCOC)c(=O)n4c3)cnc2OC)s1 [compound 189] | – | –
39 | ≤ 50 nM | – | COCCOc1cnc2ccc(-c3cnc(OC)c(NS(=O)(=O)c4ccc(N)nc4C)c3)cn2c1=O [compound 190] | – | –
40 | ≤ 50 nM | – | COCCOCCOc1cnc2ccc(-c3cnc(OC)c(NS(=O)(=O)c4sc(C)nc4C)c3)cn2c1=O [compound 191] | – | –
41 | ≤ 50 nM | – | COCCOc1cnc2ccc(-c3cnc(OC)c(NS(=O)(=O)c4sc(N(C)C)nc4C)c3)cn2c1=O [compound 193] | – | –
